In one assay the test system is Nanog transcription site. Briefly: Nanog transcription bursting (MCP-mNeonGreen, NMG mESCs). In kind it is cell-based, mouse. From the text: (§1) It is discovered that Pol II, Sox2 and Brd4 form foci at Nanog transcription sites, with nanoscale organization akin to Pou5f1—colocalization of Pol II with 3′UTR-tagged nascent RNA and resolvable separation of enhancer-associated regulatory factors (FIGS. 9A-9D).
If accumulated Brd4 at Nanog acts mainly as a Pol II pause-release factor, upon Brd4 inhibition a reduction in burst amplitude would be expected. […] Thus, beyond controlling Pol II pause-release, Brd4 regulates transcription bursting, exemplified by the striking correspondence between burst frequency and enhancer-associated Brd4 cluster size. Bursting kinetics cannot be captured by static end-point assays that provide information averaged over a population of cells (e.g. ChIP, NET-Seq etc).
Wide-Field Cell Imaging Experiments. Live cell imaging experiments (tdPCP-EGFP and MCP-mNeonGreen tracking). For time-lapse imaging, a z-stack of 11 frames at 1 frame/second was acquired, by stepping the sample along the z-axis using the nanopositioning stage (250 nm steps). The CCD data were analyzed using IDL 6.4 (ITTVIS). Maximum projection images were calculated for each stack, and the resulting 11 sec/frame movie was used to track the intensities of individual tdPCP-EGFP-tagged transcription sites. A particle tracking routine (Crocker and Grier, 1996) was used for finding the positions of the transcription site in each frame and linking them into a 2D trajectory. The intensity trace of tdPCP-EGFP at the transcription site was corrected for photo-bleaching using the time trace of tdPCP-EGFP in a nearby nuclear region. The auto-correlation function was calculated (for the tdPCP-EGFP fluctuation analysis), or the data were imported in Origin 8.5.0 (OriginLab) and the trace fitted to a single-exponential decay (for the transcription inhibition experiments).
NMG mESCs contain 24×MS2 cassettes integrated in the 3′-UTR of both Nanog alleles and also stably express MCP-mNeonGreen (Ochiai et al., 2014).

The target in assay [1] is T1, Brd4 foci at the Nanog locus (Mus musculus, UniProt Q9ESU6).
T1 construct: integrating a SNAP-tag at the N-terminus of the endogenous Brd4; endogenous in cells; host or cells: mouse ESCs NMG, NMG SNAP-Brd4 clone 7 (CRISPR knock-in, homozygous)
Briefly: Brd4 cluster signal at Nanog vs. [JQ1]. In kind it is cell-based. The settings on record: mESCs. The method, then: as §1
For real-time confocal and STED imaging, example implementations may program the wave generator to scan 2 μm×2 μm or 1 μm×1 μm xy areas in 0.8 sec or 0.2 sec respectively. 3D scanning was performed (via, e.g., detection system 150) by acquiring 5 xy scans while moving the stage by 0.5 μm in z between scans. TTL pulses corresponding to single-photon events from the APDs, together with the trigger pulses from the wave generator were detected using a field-programmable gate array (FPGA) data acquisition system (National Instruments, PCIe-7852R).
Before imaging, cells were seeded onto 8-chamber coverglass (LabTek, 155411) coated with 5 μg/ml laminin (BioLamina LN511), in −2i media (OMG) or +2i media (NMG) and appropriate drugs. For SiR staining, cells were labeled with media containing 0.3 μM SiR-BG for 10 mins, at 37° C., followed by three washes with new media.
To generate OMG or NMG SNAP-Brd4 targeted cells, OMG-1 or NMG mESCs (1×106) were transfected with 10 μg SNAP-Brd4 donor vector and 0.6 μg espCas9-gRNA-Brd4 vector. […]

The test system of assay [2] is Pol II (FLAG-SNAP-Rpb1) at the CMV mini-gene. The experiment in a line: ChIP-qPCR of Pol II at the CMV mini-gene after flavopiridol treatment (U2-OS cells). It counts as cell-based, human. The following applies: 10 μM flavopiridol, by the 5-minute time point; clone 5 cells. The method, then: ChIP-qPCR analysis of Pol II after flavopiridol treatment. U2-OS cells. Fast chromatin immuno-precipitation was performed as described. Confluent 15 cm dishes (20×10^6 cells) were treated with 10 μM Flavopiridol or DMSO for the indicated times. Methanol-free formaldehyde (Thermo Fisher) was then directly added to the media to 1% v/v final concentration, and dishes were immediately placed on a rotator/shaker for 10 minutes at RT. Formaldehyde was quenched with 125 mM glycine for 5 min at RT, and cells were scraped and collected with centrifugation (2,000 g, 5 min at 4° C.) and washed twice with cold PBS. Cells were lysed in buffer IP (150 mM NaCl, 50 mM Tris-HCl pH 7.5, 5 mM EDTA, 0.5% v/v NP-40, 1.0% v/v Triton X-100) containing protease inhibitors, centrifuged (12,000 g, 1 min at 4° C.), and after one wash, the pellet was resuspended in buffer IP+protesase inhibitors. Volume equivalent to 4×10^6 cells was sonicated to shear the chromatin (Bioruptor indirect sonicator), and cleared using centrifugation (12,000 g, 10 min at 4° C.). […] Eluted chromatin was analyzed with qPCR, using primer pairs specific for different mini-gene regions (FIGS. 13I, 13J).
In general terms: Quantitative PCR measures a nucleic acid by following its amplification.

Turning to `Cc1sc2c(c1C)C(c1ccc(Cl)cc1)=N[C@@H](CC(=O)OC(C)(C)C)c1nnc(C)n1-2` [JQ1], in the assay with Nanog transcription site (JQ1 titration), the Nanog burst duration result is listed as “largely unaffected”. For the same compound, in the assay with Nanog transcription site (Nanog, mESCs), the “Hill equation n, Nanog burst frequency vs. [JQ1]” value came out at 0.9±0.3. The Nanog burst amplitude result with Nanog transcription site (at higher [JQ1]) is on record as “modest reduction”. In the assay with Nanog transcription site (at low [JQ1]), the Nanog burst frequency entry is recorded as “dramatically reduced”. Moreover, the “Hill curve n, relative Brd4 signal at Nanog vs. [JQ1]” value in assay [1] stood at 1.0.
In the case of `CN1CC[C@H](c2c(O)cc(O)c3c(=O)cc(-c4ccccc4Cl)oc23)[C@H](O)C1` [flavopiridol], the “Pol II ChIP signal at mini-gene body and terminator regions” value in assay [2] is listed as “near-complete loss”.

For the origin of these results see patent US12031897B2, “Target-locking single-molecule nanoscopy” (Memorial Sloan Kettering Cancer Center, priority 2019, dated 2024).
